{"source": "patent US4434290A", "about": "“Pyrido (4,3-B) carbazoles substituted in the 1 position by a polyamine chain” (priority 1978, dated 1984)", "key": {"[1]": {"system": "leukemia L1210", "test": "Leukemia L1210 in vivo, measurement of survival time (Table XII)", "design": "species or system B6 D2 Fl (C 57 Bl/6×DBA/2) Fl mice; MST: unit not given here", "settings": "for Death interval (mice) / ILS % / MST / Surviving mice: i.p.", "experimental": "The following pharmacological trials relate to the effects of the compounds of the invention on leukemia L1210 in vivo.\nG. Proc. Nat. Acad. Sci. 1972, 69, 1042-1047 and Schepartz S., Screening 1971, Cancer Chemother. Part 3; Vol. 2, p. 3].\nThe properties were determined by the curative action inoculated experimental leukemia L1210. This leukemia was maintained on B6 D2 Fl (C 57 Bl/6×DBA/2) Fl mice in the proportion of 6 or 10 mice per experimental batch. The compounds to be tested were injected by the intraperitoneal route one or several days after inoculation of the cells (1 injection only). […] The death interval was determined, the first figure of the Table indicating the date of the first mouse death and the second the date of the last mouse death. The mean survival time was also measured (MST). A characteristic value is the percentage of increased life span (ILS %). This value (Cancer. Res. 1971, 31, 1883-1887) is the ratio: [formula] where S^t =survival of treated animals and\nS^c =survival of control animals."}, "[2]": {"system": "leukemia L1210", "test": "Leukemia L1210 in vivo, effect of the day of inoculation (Table XIII)", "design": "species or system mice", "settings": "15 mg/kg; for Death interval / ILS % / Mean survival time: 10^5 cells; for Surviving mice: groups of 6 mice", "protocol": "The properties were determined by the curative action inoculated experimental leukemia L1210. This leukemia was maintained on B6 D2 Fl (C 57 Bl/6×DBA/2) Fl mice in the proportion of 6 or 10 mice per experimental batch. The compounds to be tested were injected by the intraperitoneal route one or several days after inoculation of the cells (1 injection only). The death interval was determined, the first figure of the Table indicating the date of the first mouse death and the second the date of the last mouse death. The mean survival time was also measured (MST). A characteristic value is the percentage of increased life span (ILS %).\nAs in the above test the death interval was determined, the mean survival time (MST) was measured and the percentage of increased life span (ILS %) was calculated."}, "[3]": {"system": "cells of viro-induced leukemia of Friend", "test": "In vitro cytotoxic study on cells of the Friend leukemia of the mouse (Table XV)", "type": "cell-based", "experimental": "\"In vitro\" cytotoxic study of the compounds of the invention on the cells of viro-induced leukemia of Friend in the mouse [J. Exp. Med. 1957, 105, p. 307-318].\nThe cells were grown in suspension in the RPMI 1640 medium [catalogue of GIBCO Bio-Cult-Ltd, Washington Road Sandyford Industrial Estate Paisley PA3 4EP Renfrewshire Scotland] supplement with 20% of embryonary calf serum, with penicillin and with streptopycin. The duplication time of the culture was about 11 hours. The growth factor is equal to 1 or very close to 1 (all the cells multiplying).\nThe cultures were seeded at times t=0 at the concentration of 2×10^5 cells per ml in Falcon dishes containing 4 ml of medium. 24 hours later, the product to be tested (in solution, in acetic water) was added, at the moment when the cells were in the exponential growth phase. 24 hours after the addition of the product, the cells were counted and the percentage of living cells determined by an exclusion test with trypan blue."}, "[4]": {"system": "L1210 cells", "test": "In vitro cytotoxic study on leukemia L1210 cells, complete inhibition of growth (Table XVI)", "type": "cell-based", "experimental": "Cytotoxic \"in vitro\" study on hamster cells on leukemia L1210 cells of the serie.\nAfter 5 hours, the cells were attached to a plastic support and the products to be tested whose solutions had been formed in water or in DMSO (dimethylsulphoxide) if the product was little soluble in water, was added. In the latter case a control was carried out with the same final concentration of DMSO in the culture medium.\nThe state of the cells was examined 24, 48 and 72 hours later.\nIn the case of the L1210 cells, the tests were carried out in a medium gelled with agarose, the L1210 cells growing in suspension."}, "[5]": {"system": "virus of Friend's leukemia (VFA)", "test": "Friend's leukemia, measurement of splenomegaly (Table XVII)", "type": "in vivo, DBA2 male mice", "settings": "for Mean weight of the spleen: 10 mg/kg (0.2 mg/mouse), day +15; for Mean weight of the spleen / Number of leukemic mice: D + 1; for Number of leukemic mice: 10 mg/kg, spleen >250 mg", "source_text": "(§1) The following experiments related to the treatment of mice inoculated by the virus of Friend's leukemia.\n(§2) In these experiments DBA2, male mice, aged from 2 to 3 months, of weight around 20 g, were used.\n(§3) An anemia inducing strain of Friend's virus (VFA) maintained for several years in the laboratory was used. The viral stock was constituted by an acellular supernatant liquor obtained by the centrifugation of a ground product of leukemic spleens, carried out in an 0.5 M PBS-saccharose solution. The assay of the stock was done in vivo by the method described by JASMIN et al [J. Nat. Cancer Inst. 1974,53, 469-474]. The measurement is expressed in SD50 (50% spleen enlarging dose).\nThe Friend virus was injected in the mouse by the intraperitoneal route. […] The spleens were removed and then weighed individually."}, "[6]": {"system": "Friend's virus (VFA)", "test": "Anemia inducing Friend's virus, dose/effect relationship (Table XIX)", "type": "in vivo, mice", "settings": "for Death interval / ILS % / Mean survival time: VFA 1/800, D+1; for Surviving mice: groups of 10 mice", "source_text": "as §1, §2, §3\nExperimental groups of 10 mice were used, into which the VFA virus (dilution 1/800-% of leukemias=100%) was injected on day Do. The compound 27 according to the invention was then injected at day D+1 at various doses according to the groups and the death interval, the mean survival time and the percentage of increased life span were determined."}, "[7]": {"settings": "experimental group of six mice, 15 mg/kg, day +1, 15 mg/kg"}, "[8]": {"settings": "experimental group of six mice, 20 mg/kg, day +1"}}, "note": "Several values for one entry are separate records, joined by “and”; a condition that tells them apart may be missing. Equal entries are not always repeated.", "data": [{"smiles": "CCN(CC)CCCNc1nccc2c(C)c3[nH]c4ccc(OC)cc4c3c(C)c12", "note": "[Compound 27]", "values": [{"measurement": "Death interval (mice)", "setting": "[1]; 10^5 cells, 10 mg/kg, day +3", "result": "12-31"}, {"measurement": "ILS %", "setting": "[1]; 10^5 cells, 10 mg/kg, day +3", "result": 49.4, "unit": "%"}, {"measurement": "MST", "setting": "[1]; 10^5 cells, 10 mg/kg, day +3", "result": 17.3}, {"measurement": "Death interval (mice)", "setting": "[1]; 10^5 cells, 10 mg/kg, day +4", "result": "16-27"}, {"measurement": "ILS %", "setting": "[1]; 10^5 cells, 10 mg/kg, day +4", "result": 92.3, "unit": "%"}, {"measurement": "MST", "setting": "[1]; 10^5 cells, 10 mg/kg, day +4", "result": 20}, {"measurement": "Death interval (mice)", "setting": "[1]; 10^5 cells, 15 mg/kg, day +1", "result": "17-43"}, {"measurement": "ILS %", "setting": "[1]; 10^5 cells, 15 mg/kg, day +1", "result": 128.6, "unit": "%"}, {"measurement": "MST", "setting": "[1]; 10^5 cells, 15 mg/kg, day +1", "result": 24}, {"measurement": "Death interval (mice)", "setting": "[1]; 10^5 cells, 20 mg/kg, day +3", "result": "10-30"}, {"measurement": "ILS %", "setting": "[1]; 10^5 cells, 20 mg/kg, day +3", "result": 42.7, "unit": "%"}, {"measurement": "MST", "setting": "[1]; 10^5 cells, 20 mg/kg, day +3", "result": 16.5}, {"measurement": "Death interval (mice)", "setting": "[1]; 10^5 cells, 20 mg/kg, day +4", "result": "17-23"}, {"measurement": "ILS %", "setting": "[1]; 10^5 cells, 20 mg/kg, day +4", "result": 94.2, "unit": "%"}, {"measurement": "MST", "setting": "[1]; 10^5 cells, 20 mg/kg, day +4", "result": 20.2}, {"measurement": "Surviving mice", "setting": "[1]; experimental group of six mice, 15 mg/kg, day +1", "result": 4, "unit": "mice"}, {"measurement": "Death interval (mice)", "setting": "[1]; [7]", "result": "19-35 and 20-32"}, {"measurement": "MST", "setting": "[1]; [7]", "result": "25 and 26"}, {"measurement": "Death interval (mice)", "setting": "[1]; [8]", "result": "20-31"}, {"measurement": "ILS %", "setting": "[1]; [8]", "result": 102.4, "unit": "%"}, {"measurement": "MST", "setting": "[1]; [8]", "result": 25.5}, {"measurement": "Surviving mice", "setting": "[1]; [8]", "result": 4, "unit": "mice"}, {"measurement": "increase in the life span (ILS)", "setting": "[1]; text: dose closest to the toxic dose, same conditions", "result": 134, "unit": "%"}, {"measurement": "activity by day of inoculation", "setting": "[2]", "result": "more active one day after inoculation of the cells"}, {"measurement": "Death interval", "setting": "[2]; D+1", "result": "15-29"}, {"measurement": "ILS %", "setting": "[2]; D+1", "result": 82.6, "unit": "%"}, {"measurement": "Mean survival time", "setting": "[2]; D+1", "result": 21}, {"measurement": "Death interval", "setting": "[2]; D+2", "result": "15-35"}, {"measurement": "ILS %", "setting": "[2]; D+2", "result": 88.7, "unit": "%"}, {"measurement": "Mean survival time", "setting": "[2]; D+2", "result": 21.7}, {"measurement": "Death interval", "setting": "[2]; D+3", "result": "13-25"}, {"measurement": "ILS %", "setting": "[2]; D+3", "result": 56.5, "unit": "%"}, {"measurement": "Mean survival time", "setting": "[2]; D+3", "result": 18}, {"measurement": "Death interval", "setting": "[2]; D+4", "result": "14-20"}, {"measurement": "ILS %", "setting": "[2]; D+4", "result": 39.1, "unit": "%"}, {"measurement": "Mean survival time", "setting": "[2]; D+4", "result": 16}, {"measurement": "Death interval", "setting": "[2]; Do(+3h)", "result": "16-25"}, {"measurement": "ILS %", "setting": "[2]; Do(+3h)", "result": 80, "unit": "%"}, {"measurement": "Mean survival time", "setting": "[2]; Do(+3h)", "result": 20.7}, {"measurement": "Surviving mice", "setting": "[2]; D+1", "result": 2, "unit": "mice"}, {"measurement": "Surviving mice", "setting": "[2]; D+2", "result": 0, "unit": "mice"}, {"measurement": "Surviving mice", "setting": "[2]; D+3", "result": 0, "unit": "mice"}, {"measurement": "Surviving mice", "setting": "[2]; D+4", "result": 0, "unit": "mice"}, {"measurement": "Surviving mice", "setting": "[2]; Do(+3h)", "result": 0, "unit": "mice"}, {"measurement": "IC50", "setting": "[3]; Mus musculus, 24 h, read-out: LD 50 (50% lethal dose)", "result": 450, "unit": "nM"}, {"measurement": "IC100", "setting": "[3]; Mus musculus, 24 h, read-out: LD 100 (100% lethal dose)", "result": 1.2, "unit": "µM"}, {"measurement": "LD 50 HUM / LD 50 product", "setting": "[3]; ratio to reference HUM", "result": 0.65}, {"measurement": "IC (100 (complete growth inhibition, minimal))", "setting": "[4]; Mus musculus, L1210, medium gelled with agarose, read-out: Minimal dose leading to a complete inhibition of the growth", "result": 0.6, "unit": "µM"}, {"measurement": "activity compared with the reference BD40", "setting": "[4]; summary of Table XVI", "result": "almost as active as the reference dipyrido-indole (BD40)"}, {"measurement": "protective power on Friend's leukemia", "setting": "[5]; mouse, in vivo", "result": "has a protective power on Friend's leukemia"}, {"measurement": "Mean weight of the spleen", "setting": "[5]; virus dilution 1/800", "result": 183, "unit": "mg"}, {"measurement": "Number of leukemic mice", "setting": "[5]; virus dilution 1/800", "result": "2/10"}, {"measurement": "Mean weight of the spleen", "setting": "[5]; virus dilution 1/1600", "result": 199, "unit": "mg"}, {"measurement": "Number of leukemic mice", "setting": "[5]; virus dilution 1/1600", "result": "0/5"}, {"measurement": "Mean weight of the spleen", "setting": "[5]; virus dilution 1/3200", "result": 220, "unit": "mg"}, {"measurement": "Number of leukemic mice", "setting": "[5]; virus dilution 1/3200", "result": "1/5"}, {"measurement": "deaths through toxicity", "setting": "[6]; 15 mg/kg, group of 10 mice", "result": "Two"}, {"measurement": "dose/effect relationship", "setting": "[6]; 5-15 mg/kg", "result": "proportional to the inoculated dose"}, {"measurement": "Death interval", "setting": "[6]; 5 mg/kg", "result": "25-36"}, {"measurement": "ILS %", "setting": "[6]; 5 mg/kg", "result": 31.78, "unit": "%"}, {"measurement": "Mean survival time", "setting": "[6]; 5 mg/kg", "result": 31.1}, {"measurement": "Death interval", "setting": "[6]; 10 mg/kg", "result": "32-64"}, {"measurement": "ILS %", "setting": "[6]; 10 mg/kg", "result": 103, "unit": "%"}, {"measurement": "Mean survival time", "setting": "[6]; 10 mg/kg", "result": 45.8}, {"measurement": "Death interval", "setting": "[6]; 15 mg/kg", "result": "33-63"}, {"measurement": "Mean survival time", "setting": "[6]; 15 mg/kg", "result": 49.9}, {"measurement": "ILS %", "setting": "[6]; 15 mg/kg, toxic deaths excluded", "result": 122, "unit": "%"}, {"measurement": "Surviving mice", "setting": "[6]; 5 mg/kg", "result": 0, "unit": "mice"}, {"measurement": "Surviving mice", "setting": "[6]; 10 mg/kg", "result": 0, "unit": "mice"}, {"measurement": "Surviving mice", "setting": "[6]; 15 mg/kg", "result": 0, "unit": "mice"}]}]}
